Laboratory results from patent US20230096766A1, “AMINO ACID HAVING FUNCTIONAL GROUP CAPABLE OF INTERMOLECULAR HYDROGEN BONDING, PEPTIDE COMPOUND CONTAINING SAME AND METHOD FOR PRODUCTION THEREOF” (Chugai Seiyaku Kabushiki Kaisha, priority 2018, published 2023).
*1 amine or outer side, *2 acyl side, *3 side chain or, on linkers, in order; H or OH if unused. Where a SMILES comes first, the peptide text is derived from it. Bridges are numbered along the chain shown (N, C = ends). [ ]: non-standard residue; d: D form. The star is where a group is joined. ξ: configuration not given here. dhPhe(4-CONHMe,3-OMe) = CNC(=O)c1ccc(CC[C@@H](N)C(=O)O)cc1OC; Phe(4-COOH) = N[C@@H](Cc1ccc(C(=O)O)cc1)C(=O)O; X11 = CNC(=O)c1ccc(CCN(CC(=O)[*:2])[*:1])cc1OC; NMePhe(3-Cl) = CN[C@@H](Cc1cccc(Cl)c1)C(=O)O; X12 = O=C([C@H](CCCC(O)C(F)(F)F)N[*:1])[*:2]; NMeW = CN[C@@H](Cc1c[nH]c2ccccc12)C(=O)O; NMehPhe = CN[C@@H](CCc1ccccc1)C(=O)O; X7 = O=C(C[C@H](COCCO)N[*:1])[*:2]; NMeF = CN[C@@H](Cc1ccccc1)C(=O)O; NMeGABA = CN(CCCC(=O)[*:2])[*:1]; NMeI = CC[C@H](C)[C@H](NC)C(=O)O; Butyl(3-Me,3-OH) = CC(C)(O)CC*; CH2CONHtBu = CC(C)(C)NC(=O)C*; NMeL = CN[C@@H](CC(C)C)C(=O)O; Propyl(2R-OH) = C[C@@H](O)C*; Butyl(3S-OH) = C[C@H](O)CC*; NMeV = CN[C@H](C(=O)O)C(C)C; NMeAbu = CC[C@H](NC)C(=O)O; NMeA = CN[C@@H](C)C(=O)O; Piperidide = C1CCN(*)CC1; NBuGly = CCCCNCC(=O)O; Isopentyl = CC(C)CC*; NPrGly = CCCNCC(=O)O; Propyl(3-OH) = OCCC*; ξS = NC(CO)C(=O)O; N(OH)Me = CN(O)*; Sar = CNCC(=O)O; tBu = CC(C)(C)*

assay: in vitro; details: human, Caco-2, Caco-2 (cm/sec)

Compound | Papp
CCCCN1CC(=O)N(C)[C@@H](C)C(=O)N[C@@H](COC(C)(C)C)C(=O)N(C)[C@@H](CC(C)C)C(=O)N(CCc2ccc(C(=O)NC)c(OC)c2)CC(=O)N[C@H](C(=O)N2CCCCC2)CC(=O)N[C@H](CC(C)C)C(=O)N(C)[C@@H](Cc2ccccc2)C(=O)N[C@@H](CC(C)C)C(=O)N(C)[C@@H](CC(C)C)C(=O)N[C@@H]([C@@H](C)O)C1=O [AP220] ([dL][NMeF]L[NMeL]T[NBuGly][NMeA]S(tBu)[NMeL][X11]D-Piperidide; lactam N-11) | 0.8 ×10⁻⁶ cm/s
CC(C)C[C@@H]1NC(=O)[C@H](Cc2c[nH]c3ccccc23)N(C)C(=O)[C@@H](C(C)C)NC(=O)C[C@@H](C(=O)N2CCCCC2)NC(=O)[C@H](CC(C)C)N(C)C(=O)[C@H](CC(C)C)N(C)C(=O)[C@H](COC(C)(C)C)NC(=O)[C@H](CC(C)C)N(C)C(=O)CN(C)C(=O)[C@H]([C@@H](C)O)NC(=O)[C@H](CC(C)C)N(C)C1=O [pd106] ([dV][NMeW]L[NMeL]T[Sar][NMeL]S(tBu)[NMeL][NMeL]D-Piperidide; lactam N-11) | 0.36 ×10⁻⁶ cm/s
CCCCN1CC(=O)N(C)[C@@H](Cc2ccccc2)C(=O)N(C)[C@@H](CC(C)C)C(=O)N[C@H](CCc2ccc(C(=O)NC)c(OC)c2)C(=O)N(C)[C@@H](CC(C)C)C(=O)N[C@H](C(=O)N2CCCCC2)CC(=O)N(C)CC(=O)N(C)[C@@H](CC(C)C)C(=O)N[C@@H]([C@@H](C)CC)C(=O)N(C)[C@@H](CC(C)C)C(=O)N[C@@H]([C@@H](C)O)C1=O [AP215] ([Sar][NMeL]I[NMeL]T[NBuGly][NMeF][NMeL][dhPhe(4-CONHMe,3-OMe)][NMeL]D-Piperidide; lactam N-11) | 0.43 ×10⁻⁶ cm/s
CC[C@H](C)[C@@H]1NC(=O)[C@H](CC(C)C)N(C)C(=O)CCCN(C)C(=O)C[C@@H](C(=O)N2CCCCC2)NC(=O)[C@H](CC(C)C)N(C)C(=O)[C@H](CC(C)C)N(C)C(=O)[C@H]([C@@H](C)O)NC(=O)[C@H](CC(C)C)N(C)C(=O)[C@H](Cc2ccc(C(=O)N(C)O)cc2)NC(=O)[C@H](CC(C)C)N(C)C(=O)[C@H](Cc2ccccc2)N(C)C1=O [AP251] ([NMeGABA][NMeL]I[NMeF][NMeL][Phe(4-COOH)](N(OH)Me)[NMeL]T[NMeL][NMeL]D-Piperidide; lactam N-11) | 0.03 ×10⁻⁶ cm/s
CC(C)C[C@@H]1NC(=O)[C@H](CC(C)C)N(C)C(=O)[C@H](C)N(C)C(=O)[C@@H](C(C)C)NC(=O)C[C@@H](C(=O)N2CCCCC2)NC(=O)[C@H]([C@@H](C)O)NC(=O)[C@H](C)N(C)C(=O)CN(C)C(=O)[C@H](CC(C)C)N(C)C(=O)[C@H](Cc2c[nH]c3ccccc23)NC(=O)[C@H](Cc2ccccc2)N(C)C1=O [pd100] ([dV][NMeA][NMeL]L[NMeF]W[NMeL][Sar][NMeA]TD-Piperidide; lactam N-11) | 0.11 ×10⁻⁶ cm/s
CCCCN1CC(=O)N(C)[C@@H](Cc2ccccc2)C(=O)N[C@@H](COCCO)CC(=O)N(C)[C@@H](CC(C)C)C(=O)N[C@@H]([C@@H](C)O)C(=O)N(CCC)CC(=O)N(C)[C@@H](Cc2ccccc2)C(=O)N(C)[C@@H](CC(C)C)C(=O)N[C@@H](CC(C)C)C(=O)N(C)[C@@H](CC(C)C)C(=O)N[C@H](C(=O)N2CCCCC2)CC1=O [AP25] ([NBuGly][NMeF][X7][NMeL]T[NPrGly][NMeF][NMeL]L[NMeL]D-Piperidide; lactam N-11) | 0.62 ×10⁻⁶ cm/s
CCCN1CC(=O)N(C)[C@@H](CC(C)C)C(=O)N[C@@H](COCC(=O)NC(C)(C)C)C(=O)N(C)[C@@H](CC(C)C)C(=O)N(C)[C@@H](C)C(=O)N[C@H](C(=O)N2CCCCC2)CC(=O)N[C@H](CC(C)C)C(=O)N(C)[C@@H](CC(C)C)C(=O)N[C@@H](Cc2ccccc2)C(=O)N(C)[C@@H](CCc2ccccc2)C(=O)N[C@@H]([C@@H](C)O)C1=O [AP13] ([dL][NMeL]F[NMehPhe]T[NPrGly][NMeL]S(CH2CONHtBu)[NMeL][NMeA]D-Piperidide; lactam N-11) | 0.32 ×10⁻⁶ cm/s
CCCCN1CC(=O)N(C)[C@@H](Cc2ccccc2)C(=O)N[C@@H](COCCCO)C(=O)N(C)[C@@H](CC(C)C)C(=O)N[C@@H]([C@@H](C)O)C(=O)N(CCCC)CC(=O)N(C)[C@@H](Cc2ccccc2)C(=O)N(C)[C@@H](C(C)C)C(=O)N[C@@H](COC(C)(C)C)C(=O)N(C)[C@@H](CC(C)C)C(=O)N[C@H](C(=O)N2CCCCC2)CC1=O [AP95] ([NBuGly][NMeF]S(Propyl(3-OH))[NMeL]T[NBuGly][NMeF][NMeV]S(tBu)[NMeL]D-Piperidide; lactam N-11) | 0.69 ×10⁻⁶ cm/s
CC(C)CCOC[C@@H]1NC(=O)[C@H](Cc2ccccc2)N(C)C(=O)[C@H](Cc2ccccc2)N(C)C(=O)[C@H](COCCC(C)(C)O)NC(=O)[C@H](CC(C)C)N(C)C(=O)CCCN(C)C(=O)C[C@@H](C(=O)N2CCCCC2)NC(=O)[C@H](CC(C)C)N(C)C(=O)[C@H](CC(C)C)N(C)C(=O)[C@H]([C@@H](C)O)NC(=O)[C@H](C(C)C)N(C)C1=O [AP53] ([NMeGABA][NMeL]S(Butyl(3-Me,3-OH))[NMeF][NMeF]S(Isopentyl)[NMeV]T[NMeL][NMeL]D-Piperidide; lactam N-11) | 0.74 ×10⁻⁶ cm/s
CCCCN1CC(=O)N(C)[C@@H](CC(C)C)C(=O)N[C@@H](COC[C@@H](C)O)C(=O)N(C)[C@@H](Cc2cccc(Cl)c2)C(=O)N(C)[C@@H](C(C)C)C(=O)N[C@H](C(=O)N2CCCCC2)CC(=O)N[C@H](C(C)C)C(=O)N(C)[C@@H](Cc2ccccc2)C(=O)N[C@@H](CC(C)C)C(=O)N(C)[C@@H](CC(C)C)C(=O)N[C@@H]([C@@H](C)O)C1=O [AP80] ([dV][NMeF]L[NMeL]T[NBuGly][NMeL]S(Propyl(2R-OH))[NMePhe(3-Cl)][NMeV]D-Piperidide; lactam N-11) | 0.36 ×10⁻⁶ cm/s
CC(C)C[C@H]1C(=O)N[C@@H]([C@@H](C)O)C(=O)N(C)[C@@H](CC(C)C)C(=O)N(C)[C@@H](CC(C)C)C(=O)N[C@H](C(=O)N2CCCCC2)CC(=O)N(C)CCCC(=O)N(C)[C@@H](C(C)C)C(=O)NC(COCC[C@H](C)O)C(=O)N(C)[C@@H](Cc2ccccc2)C(=O)N(C)[C@@H](Cc2cccc(Cl)c2)C(=O)N[C@@H](COC(C)(C)C)C(=O)N1C (stereo partly drawn) [AP101] ([NMeGABA][NMeV][ξS](Butyl(3S-OH))[NMeF][NMePhe(3-Cl)]S(tBu)[NMeL]T[NMeL][NMeL]D-Piperidide; lactam N-11) | 0.59 ×10⁻⁶ cm/s
CC(C)CCOC[C@@H]1NC(=O)[C@H](CC(C)C)N(C)C(=O)CN(C)C(=O)[C@H]([C@@H](C)O)NC(=O)[C@H](CC(C)C)N(C)C(=O)[C@H](COCCC(C)(C)O)NC(=O)[C@H](Cc2ccccc2)N(C)C(=O)[C@@H](C(C)C)NC(=O)C[C@@H](C(=O)N2CCCCC2)NC(=O)[C@H](CC(C)C)N(C)C(=O)[C@H](Cc2ccccc2)N(C)C1=O [AP51] ([dV][NMeF]S(Butyl(3-Me,3-OH))[NMeL]T[Sar][NMeL]S(Isopentyl)[NMeF][NMeL]D-Piperidide; lactam N-11) | 1.4 ×10⁻⁶ cm/s
CC(C)C[C@@H]1NC(=O)[C@H](CC(C)C)N(C)C(=O)C[C@@H](C(=O)N2CCCCC2)NC(=O)[C@H](CC(C)C)N(C)C(=O)CN(C)C(=O)[C@H]([C@@H](C)O)NC(=O)[C@H](C(C)C)N(C)C(=O)[C@H](CC(C)C)N(C)C(=O)[C@H](Cc2ccc(C(=O)N(C)O)cc2)NC(=O)[C@H](CC(C)C)N(C)C(=O)[C@H](CC(C)C)N(C)C1=O [AP253] ([NMeL]L[NMeL][NMeL][Phe(4-COOH)](N(OH)Me)[NMeL][NMeV]T[Sar][NMeL]D-Piperidide; lactam N-11) | 0.12 ×10⁻⁶ cm/s
CCCCN1CC(=O)N(C)[C@@H](Cc2ccccc2)C(=O)N(C)[C@@H](CC(C)C)C(=O)N[C@@H](CC(C)C)C(=O)N(C)[C@@H](CC(C)C)C(=O)N[C@H](C(=O)N2CCCCC2)CC(=O)N(C)CC(=O)N(C)[C@@H](CC(C)C)C(=O)N[C@H](CCc2ccc(C(=O)NC)c(OC)c2)C(=O)N(C)[C@@H](CC)C(=O)N[C@@H]([C@@H](C)O)C1=O [AP214] ([Sar][NMeL][dhPhe(4-CONHMe,3-OMe)][NMeAbu]T[NBuGly][NMeF][NMeL]L[NMeL]D-Piperidide; lactam N-11) | 0.84 ×10⁻⁶ cm/s

same assay, conditions: human, Caco-2, Caco-2 (cm/sec) Papp

Compound | Papp
CC(C)C[C@@H]1NC(=O)[C@H](Cc2ccccc2)N(C)C(=O)[C@H](COC(C)(C)C)NC(=O)[C@H](Cc2ccccc2)N(C)C(=O)[C@H](Cc2ccccc2)N(C)C(=O)[C@H](CC(C)C)N(C)C(=O)[C@@H](CC(C)C)NC(=O)C[C@@H](C(=O)N2CCCCC2)NC(=O)[C@H](Cc2ccccc2)N(C)C(=O)[C@H]([C@@H](C)O)NC(=O)[C@H](CC(C)C)N(C)C1=O [pd243] ([dL][NMeL][NMeF][NMeF]S(tBu)[NMeF]L[NMeL]T[NMeF]D-Piperidide; lactam N-11) | 0.057 ×10⁻⁶ cm/s
CC[C@H](C)[C@@H]1NC(=O)[C@H](Cc2ccccc2)N(C)C(=O)[C@H]([C@@H](C)O)NC(=O)[C@@H](C)NC(=O)C[C@@H](C(=O)N(C)[C@@H](Cc2ccccc2)C(=O)N(C)[C@@H](Cc2ccccc2)C(=O)N[C@@H](C)C(=O)N2CCCCC2)NC(=O)[C@H](CC(C)C)N(C)C(=O)[C@H](CC(C)C)N(C)C(=O)[C@H](Cc2ccccc2)N(C)C(=O)[C@H](CC(C)C)N(C)C(=O)[C@H](C)N(C)C1=O [pd242] ([dA]T[NMeF]I[NMeA][NMeL][NMeF][NMeL][NMeL]D[NMeF][NMeF]A-Piperidide; lactam N-10) | 0.058 ×10⁻⁶ cm/s

same assay, conditions: human, Caco-2, Caco-2 (membrane permeability)

Compound | Papp
CC[C@H]1C(=O)N[C@@H](COC(C)(C)C)C(=O)N(C)[C@@H](Cc2ccccc2)C(=O)N(C)[C@@H](CC(C)C)C(=O)N[C@H](C(=O)N2CCCCC2)CC(=O)N[C@H](CC(C)C)C(=O)N(C)[C@@H](Cc2ccccc2)C(=O)N[C@@H](CC(C)C)C(=O)N(C)[C@@H](CC)C(=O)N[C@@H](CCCC(O)C(F)(F)F)C(=O)N(C)CC(=O)N1C (stereo partly drawn) [Compound D10] ([dL][NMeF]L[NMeAbu][X12][Sar][NMeAbu]S(tBu)[NMeF][NMeL]D-Piperidide; lactam N-11) | 0.81 ×10⁻⁶ cm/s
CCCCN1CC(=O)N(C)[C@@H](CC(C)C)C(=O)N[C@@H](CC(C)C)C(=O)N(C)[C@@H](Cc2ccccc2)C(=O)N(C)[C@@H]([C@@H](C)CC)C(=O)N[C@H](C(=O)N2CCCCC2)CC(=O)N[C@H](CC(C)C)C(=O)N(C)[C@@H](Cc2ccccc2)C(=O)N[C@@H](CCC(=O)NC)C(=O)N(C)[C@@H](CC(C)C)C(=O)N[C@@H]([C@@H](C)O)C1=O [Compound J01] ([dL][NMeF]E(NHMe)[NMeL]T[NBuGly][NMeL]L[NMeF][NMeI]D-Piperidide; lactam N-11) | 0.062 ×10⁻⁶ cm/s
